# From ChEMBL document CHEMBL5579818, “Identification of 3-(9H-carbazol-9-yl)-2-(1,3-dioxoisoindolin-2-yl)propanoic acids as promising DNMT1 inhibitors” (Eur J Med Chem, 2024)
# Legend:
# K562 = test: Antiproliferative activity against human K562 cells incubated for 48 hrs by MTT assay; assay type: functional, cell-based; conditions: K562, 48 h
# SiHa = test: Antiproliferative activity against human SiHa cells incubated for 48 hrs by MTT assay; assay type: functional, cell-based
# [1] = Inhibition of recombinant human DNA methyltransferase using DNA as substrate incubated for 2 hrs by agarose gel assay
# A2780 = test: Antiproliferative activity against human A2780 cells incubated for 48 hrs by MTT assay; assay type: functional, cell-based; conditions: A2780, 48 h
# HeLa = test: Antiproliferative activity against human HeLa cells incubated for 48 hrs by MTT assay; assay type: functional, cell-based
# [2] = target: T1, DNA (cytosine-5)-methyltransferase 1 (Homo sapiens, UniProt P26358); test: Inhibition of DNMT1 (unknown origin) at 500 uM relative to control
# T1 sequence (P26358 whole entry): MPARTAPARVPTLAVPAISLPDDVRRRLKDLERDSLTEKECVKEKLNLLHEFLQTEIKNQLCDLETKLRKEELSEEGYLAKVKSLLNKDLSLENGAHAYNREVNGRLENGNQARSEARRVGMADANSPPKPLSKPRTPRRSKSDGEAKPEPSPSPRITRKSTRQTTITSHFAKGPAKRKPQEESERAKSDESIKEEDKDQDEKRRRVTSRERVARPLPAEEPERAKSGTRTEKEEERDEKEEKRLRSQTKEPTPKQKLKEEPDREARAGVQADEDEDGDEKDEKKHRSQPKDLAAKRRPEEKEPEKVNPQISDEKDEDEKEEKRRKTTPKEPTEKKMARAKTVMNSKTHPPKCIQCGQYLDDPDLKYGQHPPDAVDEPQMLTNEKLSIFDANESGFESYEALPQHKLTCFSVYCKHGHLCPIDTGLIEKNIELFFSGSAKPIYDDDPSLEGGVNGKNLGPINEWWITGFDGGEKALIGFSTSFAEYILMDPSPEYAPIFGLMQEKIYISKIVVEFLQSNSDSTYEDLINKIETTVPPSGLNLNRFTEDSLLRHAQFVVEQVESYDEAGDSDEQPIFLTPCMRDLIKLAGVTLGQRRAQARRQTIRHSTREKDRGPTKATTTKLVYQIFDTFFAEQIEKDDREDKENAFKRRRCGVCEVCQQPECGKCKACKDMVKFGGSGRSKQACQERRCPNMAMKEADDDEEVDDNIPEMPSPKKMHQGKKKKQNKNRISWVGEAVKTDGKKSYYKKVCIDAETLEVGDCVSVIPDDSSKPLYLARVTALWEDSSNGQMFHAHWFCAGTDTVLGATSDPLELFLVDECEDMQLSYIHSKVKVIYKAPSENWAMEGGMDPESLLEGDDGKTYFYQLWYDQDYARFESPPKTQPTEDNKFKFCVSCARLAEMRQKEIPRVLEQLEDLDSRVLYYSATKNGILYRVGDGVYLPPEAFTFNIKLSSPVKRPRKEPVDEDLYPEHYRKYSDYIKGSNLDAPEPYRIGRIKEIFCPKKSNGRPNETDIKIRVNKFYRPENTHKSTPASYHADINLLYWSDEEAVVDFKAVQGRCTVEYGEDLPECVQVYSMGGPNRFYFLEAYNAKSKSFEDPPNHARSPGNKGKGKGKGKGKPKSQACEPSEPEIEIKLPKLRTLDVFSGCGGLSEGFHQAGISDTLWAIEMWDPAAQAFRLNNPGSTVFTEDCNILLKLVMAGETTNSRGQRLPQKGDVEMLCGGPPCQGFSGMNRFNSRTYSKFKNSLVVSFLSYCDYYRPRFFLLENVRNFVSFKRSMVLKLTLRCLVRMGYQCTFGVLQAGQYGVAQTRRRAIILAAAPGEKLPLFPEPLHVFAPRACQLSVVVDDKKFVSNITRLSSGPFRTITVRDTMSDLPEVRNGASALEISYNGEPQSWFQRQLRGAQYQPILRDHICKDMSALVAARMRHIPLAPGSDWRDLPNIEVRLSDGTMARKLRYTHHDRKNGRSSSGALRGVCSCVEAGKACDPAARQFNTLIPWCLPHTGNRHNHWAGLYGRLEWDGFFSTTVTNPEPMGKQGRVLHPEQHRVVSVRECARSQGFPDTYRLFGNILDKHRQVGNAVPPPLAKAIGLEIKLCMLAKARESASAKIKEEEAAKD
# [3] = target: T1, DNA (cytosine-5)-methyltransferase 1; test: Inhibition of DNMT1 (unknown origin) at 250 uM relative to control
# [4] = target: T1, DNA (cytosine-5)-methyltransferase 1; test: Binding affinity to human DNMT1 expressed in Escherichia coli by SPR analysis
# [5] = target: T1, DNA (cytosine-5)-methyltransferase 1; test: Binding affinity to human DNMT1 expressed in Escherichia coli assessed as response unit at 10 uM by SPR analysis
# [6] = target: T1, DNA (cytosine-5)-methyltransferase 1; test: Binding affinity to human DNMT1 expressed in Escherichia coli assessed as equilibrium dissociation constant by SPR analysis
smiles,measurement,setting,value
O=C(O)[C@H](Cc1c[nH]c2ccccc12)N1C(=O)c2ccccc2C1=O,IC50,K562,> 200 µM
same,IC50,SiHa,> 200 µM
same,IC50,[1],0.115 µM
same,IC50,A2780,> 200 µM
same,IC50,HeLa,> 200 µM
same,inhibition,[2],< 5%
same,inhibition,[3],< 5%
same,Kd,[4],94.6 µM
same,Activity,[5],2.2 RU
same,Kd,[6],94.6 µM
